In patent US20170290801A1 (Hill's Pet Nutrition, Inc., priority 2009, published 2017):

Assay: in vivo
Parameters: species or system dogs
Conditions: dog; for AUC0-infinity / AUC(0-inf): po; for AUC(0-inf): AUC0-infinity
Method: The control food without ALA is fed throughout the study period. The analytical results of the foods fed in this study are in Table 1. A three period Latin square design was used to create a 3×3 factorial arrangement of treatments with dogs assigned to a group following a planned treatment assignment. […] Pharmacokinetic parameters are calculated using a non-compartmental model and analyzed using non-parametric tests of WinNonlin 4.1 in SAS v9.]. There was a significant effect of dose for all delivery methods (P<0.05). […]

O=C(O)CCCCC1CCSS1 (racemic) [lipoic acid, dl-alpha-lipoic acid]
elimination half life, co-manufactured food compared with capsule: greater | maximum serum concentrations, effect of delivery method: lower maximum serum concentrations | total area under the curve, co-manufactured food compared with capsule: greater | AUC0-infinity (12.5 mg/kg): 92215 ng·min/mL | AUC(0-inf) (12.5 mg/kg): 1240 ng·h/mL | AUC0-infinity (25 mg/kg): 227304 ng·min/mL | AUC(0-inf) (25 mg/kg): 3580 ng·h/mL
